Measurements reported in US20240374520A1, “PROTEOLIPID VESICLES FORMULATED WITH FUSION ASSOCIATED SMALL TRANSMEMBRANE PROTEINS” (priority 2020, published 2024).

Test system: WI-38 cells
Assay type: cell-based, human
Settings: Alamar Blue, 72 hours after addition to WI-38 cells
Experimental: Conventional LNPs rely on endosomal escape for intracellular delivery, which results in limited nucleic acid release into the cytosol and is one of the major limitations of LNPs formulated for gene therapy (13, 20, 41). […] These lipids were utilized in a PLV formulation to promote nucleic acid encapsulation through charge neutralization. The optimal molar ratio of DODAP to pDNA was assessed by measuring the delivery and subsequent expression of DNA-encoded firefly luciferase (pDNA-FLuc) in retinal pigmented epithelial (ARPE-19) cells.
Cell cultures in a 96 well plates were treated with test compounds at indicated concentrations. After 24-96 hours, a 1/10 volume of Alamar blue solution (440 μM Resazurin; Sigma R7017 5GM) was added to the cells in culture medium and incubated for 2-4 hours at 37° C. 5% CO2. The Omega Fluostar (BMG LabTech) plate reader was used to measure the fluorescence (excitation wavelength of 540 nm and emission at 590 nm) of the treated cells. Cell viability was calculated using the following formula: […]

Structure (SMILES)	tolerability / toxicity of cationic and ionizable lipids
CCCCCCCC/C=C\CCCCCCCC(=O)OCC(CN(C)C)OC(=O)CCCCCCC/C=C\CCCCCCCC (centres unmarked) [DODAP, 1,2-dioleoyl-3-dimethylammonium-propane]	most favorable tolerability
CCCCCCCC/C=C\CCCCCCCC(=O)OCC(C[N+](C)(C)C)OC(=O)CCCCCCC/C=C\CCCCCCCC (centres unmarked) [DOTAP, 1,2-dioleoyl-3-trimethylammonium-propane]	slightly higher toxicity
